From patent US8653110B2, “Active compound combination comprising azadirachtin and a substituted enaminocarbonyl compound” (Bayer CropScience AG, priority 2010, dated 2014)

Experiments:
Cyclocephala immaculata = assay: Watering test with beetle larvae (Example 2); type: in vivo; details: L3 larvae, watering, (I-1) 600, azadirachtin 60, (I-1)+azadirachtin 600+60, trichlorfon 4529 g of active compound/ha
From the text: Beetle larvae (grubs) are important lawn pests. On the one hand, they feed on grass roots, damaging them directly, on the other hand they are a favoured food for birds which, searching for grubs, destroy the turf. For treatment against grubs, infested lawns are usually watered with insecticidal compositions. This type of treatment is emulated in the laboratory by Example 2.
To prepare a suitable active compound preparation, a commercial formulation of active compound or active compound combination is mixed with water until the desired concentration is reached. Pots with soil substrate were watered with the following active compound preparations: • 1. untreated • 2. compound (I-1) as SL 200, 600 g of active compound/ha • 3. azadirachtin, 60 g of active compound/ha • 4. compound (I-1) as SL 200+azadirachtin, 600+60 g of active compound/ha • 5. positive control: trichlorfon 4529 g of active compound/ha
L3 larvae of Cyclocephala immaculata were placed onto the pots. After 1, 4, 7, 14 days, the survival rate was determined, and this was used to calculate the efficacy of the compositions. 100% means that all grubs were killed, 0% means no activity.

Diabrotica balteata = Diabrotica balteata test, larvae in soil (Example 4); type: in vivo; details: soil treatment, maize, (I-1) 60 g of ai/ha, Azadirachta indica 20%, combination 60 g + 20%
Procedure: • Solvent: 4 parts by weight of acetone • Emulsifier: 1 part by weight of alkylaryl polyglycol ether
The active compound preparation was mixed with soil. […] The treated soil is filled into pots, and 5 maize corns are placed into each pot. 3 days after sowing, larvae of the corn rootworm (Diabrotica balteata) are placed into the treated soil.
The efficacy is calculated from the number of maize plants that have emerged.

Tetranychus urticae = assay: Greenhouse red spider mite on roses (Example 7); type: in vivo; details: (I-1) 50, azadirachtin 30, (I-1)+azadirachtin 50+30, imidacloprid 100 g/ha
Procedure: Example 7 describes the effect of the combination according to the invention on the greenhouse red spider mite (Tetranychus urticae) on roses. The test was carried out in a greenhouse under GEP according to EPPO guideline PP 1/168(2) with 4 repetitions of in each case 4 plants. At the start of the infection, the plants were treated as follows: • 1. untreated • 2. compound (I-1) as SL 200 (compound according to formula (I-1), 17% strength), 50 g of active compound/ha • 3. azadirachtin 30 g of active compound/ha, NeemAzal® • 4. azadirachtin 5 g of active compound/ha, NeemAzal® • 5. compound (I-1) as SL 200+azadirachtin, 50+30 g of active compound/ha • 6. compound (I-1) as SL 200+azadirachtin, 50+5 g of active compound/ha • 7. positive control imidacloprid 100 g of active compound/ha
The spray solution was prepared by mixing commercial formulations and using water to adjust to the concentration mentioned. The application rate was 1000 l/ha. 2 applications were carried out at intervals of 14 days. The number of spider mites on days 2 to 32 after the first application was scored. What is shown is the effect of the products, which becomes evident in a reduction of the number of spider mites compared to the untreated control.

[1] = system: Trialeurodes vaporariorum; assay: Whiteflies on tomatoes, further test (Example 6); type: in vivo; details: (I-1) 50, azadirachtin 15, (I-1)+azadirachtin 50+15, imidacloprid 100 g/ha
Procedure: This example describes a further test with the formulation according to the invention against whiteflies (Trialeurodes vaporariorum) on tomatoes (Lycopersicon esculentum). The test was carried out under GEP according to EPPO guideline PP 1/36(2) with 4 repetitions of in each case 5 plants. At the start of the infection, the plants were treated as follows: • 1. untreated • 2. compound (I-1) as SL 200 (compound according to formula (I-1), 17% strength), 50 g of active compound/ha • 3. azadirachtin 15 g of active compound/ha, NeemAzal® • 4. azadirachtin 5 g of active compound/ha, NeemAzal® 5. compound (I-1) as SL 200+azadirachtin, 50+15 g of active compound/ha • 6. compound (I-1) as SL 200+azadirachtin, 50+5 g of active compound/ha • 7. positive control imidacloprid 100 g of active compound/ha
The spray solution was prepared by mixing commercial formulations and using water to adjust to the concentration mentioned. The application rate was 1000 l/ha. 2 applications were carried out at intervals of 10 days. The number of adult flies and the number of larvae were scored on days 2 to 32 after the first application. What is shown is the effect of the products, which becomes evident in a reduction of the number of insects or larvae compared to the untreated control. Imidacloprid was also tested, as positive control.

Phaedon cochleariae = Phaedon cochleariae larvae test (Example 3); details: cabbage leaves sprayed, (I-1) 120 g of ai/ha, Azadirachta indica 20%, combination 120 g + 20%
Spodoptera frugiperda = assay: Fall armyworm caterpillars on maize, feeding damage (Example 8); type: in vivo; details: reduction of feeding damage, (I-1) 50, azadirachtin 30, (I-1)+azadirachtin 50+30, imidacloprid 100 g/ha

With `O=C1C=C(N(Cc2ccc(Cl)nc2)CC(F)F)CO1` [(I-1), 4-{[(6-chloropyrid-3-yl)methyl](2,2-difluoroethyl)amino}furan-2(5H)-one] the “Effect on day 1 in %” value (Cyclocephala immaculata; day 1) was 0%, the “Effect on day 4 in %” value (Cyclocephala immaculata; day 4) was 28% and the “Effect on day 7 in %” value (Cyclocephala immaculata; day 7) was 0%. The “Effect on day 14 in %” value (Cyclocephala immaculata; day 14) was 29%, the “Kill in % after 5d (found)” value (Diabrotica balteata) was 75% and the “Activity against Tetranychus urticae [%]” value (Tetranychus urticae; Day 2) was 28%. The “Activity against Tetranychus urticae [%]” value (Tetranychus urticae; Day 7) was 15%, the “Activity against Tetranychus urticae [%]” value (Tetranychus urticae; Day 14) was 43% and the “Activity against Tetranychus urticae [%]” value (Tetranychus urticae; Day 21) was 12%. The “Activity against Tetranychus urticae [%]” value (Tetranychus urticae; Days 28-32) was 15%, the “Activity against adults [%]” value ([1]; Day 2) was 86% and the “Activity against larvae [%]” value ([1]; Day 2) was 0%. The “Activity against adults [%]” value ([1]; Day 7) was 88%, the “Activity against larvae [%]” value ([1]; Day 7) was 0% and the “Activity against adults [%]” value ([1]; Day 14) was 93%. The “Activity against larvae [%]” value ([1]; Day 14) was 18%, the “Activity against adults [%]” value ([1]; Day 21) was 96% and the “Activity against larvae [%]” value ([1]; Day 21) was 4%. For the same compound, the “Activity against adults [%]” value ([1]; Days 28-32) was 67%, the “Activity against larvae [%]” value ([1]; Days 28-32) was 68% and the “Kill in % after 1d (found)” value (Phaedon cochleariae) was 15%. For the same compound, the “Activity against Spodoptera frugiperda [%]” value (Spodoptera frugiperda; Day 7) was 0%, the “Activity against Spodoptera frugiperda [%]” value (Spodoptera frugiperda; Day 14) was 0% and the “Activity against Spodoptera frugiperda [%]” value (Spodoptera frugiperda; Day 21) was 0%. The “Activity against Spodoptera frugiperda [%]” value (Spodoptera frugiperda; Days 28-32) was 0% and the “Activity against Spodoptera frugiperda [%]” value (Spodoptera frugiperda; Days 35-42) was 0%.
